Data taken from patent publication EP0499926B1, “2-Substituted quinolines, process for their preparation as well as their use in medicaments” (BAYER AG, priority 1991, dated 1992).

System: 5-LO
Assay: Lipoxygenase inhibition: release of leukotriene B4 (LTB4) from human polymorphonuclear leukocytes (PMN) after addition of substance and Ca ionophore, reverse phase HPLC
Format: cell-based
Settings: polymorphkernige Humanleukozyten (PMN), Ca-Ionophor
From the text: Die pharmakologischen Wirkungen der erfindungsgemäßen Substanzen werden durch folgende Methode bestimmt:
Als Maß für die Lipoxyenase-Hemmung wurde die Freisetzung von Leukotrien B4 (LTB4) an polymorphkernigen Humanleukozyten (PMN) nach Zugabe von Substanzen und Ca-Ionophor mittels reverse phase HPLC nach Borgeat, P. et al., Proc. Nat. Acad. Sci, 76, 2148 -2152 (1979), bestimmt.
In der Tabelle 1 sind beispielhaft die nach diesem Test erzielten Werte einiger erfindungsgemäßer Verbindungen aufgeführt: Tabelle 1

Row | IC50 | Structure (SMILES)
1 | 2500 nM | COC(=O)C(c1ccc(OCc2ccc3ccccc3n2)c(F)c1)C1CCCC1 (stereo not shown) [Beispiel 1, 2-[3-Fluor4-(chinolin-2-methoxy)phenyl]-2-cyclopentylessigsäuremethylester]
2 | 690 nM | O=C(O)C(c1ccc(OCc2ccc3ccccc3n2)c(F)c1)C1CCCC1 (stereo not shown) [Beispiel 27, 2-[3-Fluor-4-(chinolin-2-yl-methoxy)phenyl]-2-cyclopentylessigsäure]
3 | 790 nM | O=C(O)C(c1ccc(OCc2ccc3ccccc3n2)c(-n2cccc2)c1)C1CCCCCC1 (stereo not shown) [Beispiel 40]
4 | 560 nM | C=Cc1cc(C(C(=O)O)C2CCCC2)ccc1OCc1ccc2ccccc2n1 (stereo not shown) [Beispiel 41]
